# Test results reported in paper PMC9879200, “Dual-target ligand discovery for Alzheimer’s disease: triphenylphosphoranylidene derivatives as inhibitors of acetylcholinesterase and β-amyloid aggregation” (Journal of Enzyme Inhibition and Medicinal Chemistry, 2023).
# Entries after “also recorded” stand apart in the source; their conditions may differ. Read-outs that look alike come from different tables or passages of the source.
# Tests used:
# [1] = target: T1, AChE (Homo sapiens, UniProt P22303); assay: In vitro AChE inhibition assay (improved Ellman spectrophotometric method); type: biochemical
# T1 construct: purchased Bioassays System (BioAssay Systems) IACE-100
# T1 sequence (P22303 32-614): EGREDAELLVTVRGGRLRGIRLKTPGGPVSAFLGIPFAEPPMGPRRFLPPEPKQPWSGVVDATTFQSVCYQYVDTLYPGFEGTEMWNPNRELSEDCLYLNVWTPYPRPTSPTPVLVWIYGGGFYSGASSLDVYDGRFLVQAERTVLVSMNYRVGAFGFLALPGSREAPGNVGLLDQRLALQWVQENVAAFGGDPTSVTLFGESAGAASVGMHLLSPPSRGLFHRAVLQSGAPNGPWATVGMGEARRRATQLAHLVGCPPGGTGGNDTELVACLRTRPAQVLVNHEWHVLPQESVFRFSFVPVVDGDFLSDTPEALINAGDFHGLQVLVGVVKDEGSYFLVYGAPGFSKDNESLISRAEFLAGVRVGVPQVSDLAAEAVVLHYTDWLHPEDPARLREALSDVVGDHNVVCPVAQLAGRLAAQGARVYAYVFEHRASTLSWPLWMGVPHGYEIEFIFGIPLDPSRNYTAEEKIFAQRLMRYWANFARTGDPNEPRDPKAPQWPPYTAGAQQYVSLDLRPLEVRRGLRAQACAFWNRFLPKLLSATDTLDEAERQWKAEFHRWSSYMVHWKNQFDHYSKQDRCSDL
# Text: (§1) For AChE and BuChE inhibition experiments, Ellman et al. method’s was applied with a few minor adjustments. According to the manufacturer’s recommendations, the QuantiChromTM AChE Inhibitor Screening Kit (IACE-100), Bioassays System, and the Cholinesterase (ChE) Activity Assay Kit, LifeSpan BioSciences, Inc., USA, were used to measure the inhibition of AChE and BuChE, respectively. […] The relationship between product colour and enzyme activity after inhibition is established. Substrates included butyrylthiocholine iodide and acetylthiocholine iodide.
# [2] = target: T2, BuChE enzyme (Homo sapiens, UniProt P06276); assay: In vitro BuChE inhibition assay (modified Ellman spectrophotometric method); type: biochemical
# T2 construct: purchased LifeSpan BioSciences, Inc., USA
# T2 sequence (P06276 29-602): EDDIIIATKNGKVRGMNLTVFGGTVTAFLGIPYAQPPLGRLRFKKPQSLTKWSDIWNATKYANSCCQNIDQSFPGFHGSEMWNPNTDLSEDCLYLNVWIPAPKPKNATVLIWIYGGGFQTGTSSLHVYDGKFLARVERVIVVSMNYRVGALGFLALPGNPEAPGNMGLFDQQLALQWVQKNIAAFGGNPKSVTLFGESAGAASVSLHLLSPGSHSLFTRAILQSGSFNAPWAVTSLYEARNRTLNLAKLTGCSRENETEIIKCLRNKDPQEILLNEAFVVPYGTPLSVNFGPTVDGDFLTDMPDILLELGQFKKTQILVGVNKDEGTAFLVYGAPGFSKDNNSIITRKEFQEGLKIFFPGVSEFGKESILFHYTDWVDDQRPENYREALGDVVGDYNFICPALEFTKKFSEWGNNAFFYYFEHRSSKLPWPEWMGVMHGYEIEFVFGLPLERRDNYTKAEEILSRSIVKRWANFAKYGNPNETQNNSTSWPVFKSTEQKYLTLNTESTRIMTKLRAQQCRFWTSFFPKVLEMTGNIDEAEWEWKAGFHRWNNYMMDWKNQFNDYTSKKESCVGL
# Procedure: This was carried out by using the modified Ellman spectrophotometric method.
# as §1
# [3] = system: AChE (IC50 in the denominator); assay: SH-SY5Y neuroblastoma cell toxicity (MTT assay); conditions: human, SH-SY5Y neuroblastoma cells
# Procedure: (§2) The cell viability was determined through using MTT assay.
# (§3) The American Type Culture Collection provided the cells (Rockville, MD). […] The chemical was applied to the cells at various doses ([…]) for 48 h. The MTT colorimetric assay’s described methodology was then used[57].
# [4] = SH-SY5Y neuroblastoma cell toxicity (MTT assay); conditions: human, SH-SY5Y neuroblastoma cells
# Procedure: as §2, §3
# [5] = target: T1, AChE; assay: Kinetic study of AChE inhibition (Lineweaver-Burk and Dixon plots); type: biochemical
# Text: Figure 5.
# as §1
# [6] = target: T3, MMP-2 (Homo sapiens, UniProt P08253); assay: MMP-2 inhibitor screening assay (fluorometric, FRET peptide); type: biochemical
# T3 construct: purchased Abcam ab139447
# T3 sequence (P08253 110-660): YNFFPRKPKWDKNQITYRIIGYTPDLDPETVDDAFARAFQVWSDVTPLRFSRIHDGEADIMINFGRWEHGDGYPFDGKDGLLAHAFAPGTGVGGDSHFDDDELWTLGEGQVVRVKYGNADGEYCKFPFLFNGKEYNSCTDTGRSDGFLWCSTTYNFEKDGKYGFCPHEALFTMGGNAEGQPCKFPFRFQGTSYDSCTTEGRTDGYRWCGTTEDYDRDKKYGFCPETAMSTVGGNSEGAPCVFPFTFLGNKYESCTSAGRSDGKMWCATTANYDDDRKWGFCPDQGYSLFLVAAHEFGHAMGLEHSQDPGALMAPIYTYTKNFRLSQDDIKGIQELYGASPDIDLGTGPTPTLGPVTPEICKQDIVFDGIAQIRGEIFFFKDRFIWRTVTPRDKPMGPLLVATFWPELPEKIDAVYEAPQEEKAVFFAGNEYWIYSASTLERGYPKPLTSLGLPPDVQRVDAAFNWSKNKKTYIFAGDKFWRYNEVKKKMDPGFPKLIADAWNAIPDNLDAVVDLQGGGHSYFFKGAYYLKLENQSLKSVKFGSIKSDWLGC
# Text: Matrix Metalloproteinase-2 (MMP-2) is known for its impact on neurological disorders as AD[44–46].
# This assay kit uses a fluorescence resonance energy transfer (FRET) peptide as a generic MMP activity indicator. In the intact FRET peptide, the fluorescence of one part is quenched by another. After cleavage into two separate fragments by MMPs, the fluorescence is recovered.
# [7] = target: T4, Aβ1–42 (Homo sapiens, UniProt P05067); assay: Self-induced Aβ1–42 aggregation inhibition assay (Thioflavin T, fluorometric); type: biochemical; conditions: Thioflavin T fluorescence; read-out: Self-induced Aβ1–42 aggregation IC50 (nM) ± SD
# T4 construct: the beta amyloid 1–42 (Aβ42) Ligand Screening Assay Kit (Fluorometric) (K570-100); purchased BioVision K570-100
# T4 sequence (P05067 672-713 limits assumed): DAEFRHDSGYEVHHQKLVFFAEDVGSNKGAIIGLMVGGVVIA
# [8] = system: scopolamine-induced cognitive impairment; assay: Step-down passive avoidance test, scopolamine-induced amnesia model; type: in vivo; conditions: mice; for transfer latency time (TLT), passive avoidance test: 1 mg/kg orally 30 min before scopolamine 3 mg/kg intraperitoneal
# Procedure: In order to test potential anticholinergic medication candidates, the in vivo scopolamine model was employed to cause memory impairment in mice.
# For 1 week, animals were acclimated in a room with constant illumination, humidity, and temperature (22 °C ± 1 °C, 60%, and 12 h of light/dark cycle). Throughout the experiment, unlimited amounts of food and water were given. Mice were kept in open, opaque propylene cages with good ventilation and wide access to a variety of forages.
# (§4) Healthy mice were randomised into four groups of six mice each after a 1-week adaption period, at random, as follows: Group 1 is the control group, which received saline solution with 10% Tween 80. […] Following the injection of scopolamine, the behavioural study will be examined 30 min later.
# The passive avoidance test was conducted in a device that had two independent compartments split by a sliding door. There was a connection between the illuminated chamber and a dark compartment with an electrifiable grid floor, which was free of electric impulses. Each mouse was initially placed in the lit chamber so that it could become accustomed to it. The sliding door is then opened, allowing access to the enclosed, gloomy space. The door was shut once the animal had entered the chamber entirely, and it was then shocked with an electric shock lasting two seconds (24 V, 0.5 mA). The latency time to enter the dark container was measured to gauge working memory (Training trial). Twenty-four hours after the training trial, a test trial was carried out without application of the electric foot shock[50].
# [9] = system: scopolamine-induced memory impairment in mice; assay: Y-maze test, scopolamine-induced amnesia model; type: in vivo
# Procedure: In order to test potential anticholinergic medication candidates, the in vivo scopolamine model was employed to cause memory impairment in mice. Scopolamine can inhibit the cholinergic system by antagonising the muscarinic receptor[47].
# Animal working memory is assessed using the hippocampal-dependent Y-maze test. Working memory is measured using the spontaneous alternation score[48].
# In the current investigation, adult Swiss Albino mice (8–10 weeks old, weighing 25–30 g) from the National Research Centre were employed. For 1 week, animals were acclimated in a room with constant illumination, humidity, and temperature (22 °C ± 1 °C, 60%, and 12 h of light/dark cycle). Throughout the experiment, unlimited amounts of food and water were given. Mice were kept in open, opaque propylene cages with good ventilation and wide access to a variety of forages.
# as §4
# In the Y-maze, a test of working memory, the animals’ capacity for spontaneous alternation was evaluated[49]. Three equally spaced horizontal arms measuring 120°, 45 cm long, and 16 cm high make up the Y-maze. Each mouse was put into one of the three arms of the maze and given free rein to wander from arm to arm. Both the number and order of arm inputs were recorded. The spontaneous alternation is derived from the following equation as a measure of memory performance: (Alternations/Total Arm Entries) − 2 × 100 = percent alternation. The student’s t-test was used to assess the data.
# [10] = read-out: AChE IC50 (nM) ± SD, average of triplicate determination, Ellman method, pH 7.5
compound,measurement,setting,value
"C[Si]1(Cl)C=CC(=Nc2ccccc2)C1=P(c1ccccc1)(c1ccccc1)c1ccccc1 (stereo not shown) [5a, N-(1-chloro-1-methyl-2-(triphenylphosphoranylidene)-1H-silol-3(2H)-ylidene)aniline]",IC50,[1],206 nM
"C[Si]1(Cl)C=CC(=O)C1=P(c1ccccc1)(c1ccccc1)c1ccccc1 (stereo not shown) [5b, 1-Chloro-1-methyl-2-(triphenylphosphoranylidene)-1H-silol-3(2H)-one]",IC50,[1],345 nM
"C=CC(C(=O)OC)=P(c1ccccc1)(c1ccccc1)c1ccccc1 [8b, Methyl 2-(triphenylphosphoranylidene)but-3-enoate]",IC50,[1],158 nM
"C=CC(C(C)=O)=P(c1ccccc1)(c1ccccc1)c1ccccc1 [8c, 3-(Triphenylphosphoranylidene)pent-4-en-2-one]",IC50,[2],84.8 ± 2.91 nM
same,Selectivity index,[2]; Selectivity index = (BuChE IC50)/(AChE IC50),0.87
same,selectivity ratio at 48 h,[3],75.3
same,CC50 at 48 h,[4],7310 ± 260 nM
same,type of AChE inhibition,"[5]; Lineweaver-Burk plot, Vmax and Km patterns",uncompetitively; also recorded: uncompetitive
same,Ki,"[5]; estimate from Dixon plot, read-out: inhibitory constant, Ki",15.7 nM
same,IC50,[6],724 ± 16.5 nM
same,IC50,[7],302 ± 11.4 nM
same,"transfer latency time (TLT), passive avoidance test",[8],45.2 s
same,IC50,[1],97 nM
same,"Y-maze test, percent alternations","[9]; mice, 1 mg/kg orally 30 min before scopolamine 3 mg/kg intraperitoneal",83.9%
"C=CC(C(=O)c1ccccc1)=P(c1ccccc1)(c1ccccc1)c1ccccc1 [8d, 1-Phenyl-2-(triphenylphosphoranylidene)but-3-en-1-one]",IC50,[1],426 nM
"c1ccc(N=c2c(-c3ccccc3)c(-c3ccccc3)c2=P(c2ccccc2)(c2ccccc2)c2ccccc2)cc1 [11a, N-(2,3-diphenyl-4-(triphenylphosphoranylidene)cyclobut-2-en-1-ylidene)aniline]",IC50,[1],185 nM
"O=c1c(-c2ccccc2)c(-c2ccccc2)c1=P(c1ccccc1)(c1ccccc1)c1ccccc1 [11b, 2,3-Diphenyl-4-(triphenylphosphoranylidene)cyclobut-2-enone]",IC50,[1],508 nM
"CCc1c(CC)c(=P(c2ccccc2)(c2ccccc2)c2ccccc2)c1=O [13b, 2,3-Diethyl-4-(triphenylphosphoranylidene)cyclobut-2-enone]",IC50,[1],249 nM
C[Si]1(Cl)C=C/C(=N\c2ccccc2)C1=P(c1ccccc1)(c1ccccc1)c1ccccc1 (stereo not shown) [C00001],IC50,[1],206 ± 7.33 nM
c1ccc(/N=c2/c(-c3ccccc3)c(-c3ccccc3)c2=P(c2ccccc2)(c2ccccc2)c2ccccc2)cc1 [C00002],IC50,[1],185 ± 9.22 nM
CCc1c(CC)/c(=N/c2ccccc2)c1=P(c1ccccc1)(c1ccccc1)c1ccccc1 [C00006],IC50,[1],507 ± 22.1 nM
CCc1c(CC)c(=P(c2ccccc2)(c2ccccc2)c2ccccc2)c1=O [C00008],IC50,[1]; [10],249 ± 10.4 nM
C[Si](C)(C)c1c([Si](C)(C)C)c(=P(c2ccccc2)(c2ccccc2)c2ccccc2)c1=O [C00010],IC50,[1]; [10],113 ± 4.82 nM
COc1cc2c(cc1OC)C(=O)C(CC1CCN(Cc3ccccc3)CC1)C2 (stereo not shown) [Donepezil],"transfer latency time (TLT), passive avoidance test",[8],44.0 s
same,"Y-maze test, percent alternations",[9]; 1 mg/kg,80.7%
CN1[C@@H]2C[C@@H](OC(=O)[C@H](CO)c3ccccc3)C[C@H]1[C@@H]1O[C@@H]12 [Scopolamine],"transfer latency time (TLT), passive avoidance test, scopolamine-treated group",[8]; scopolamine 3 mg/kg intraperitoneal alone,27.2 s
same,"Y-maze test, percent alternations, scopolamine model group","[9]; mice, scopolamine 3 mg/kg intraperitoneal alone, control group 82.1",51.2%
"C[Si](C)(C)c1c([Si](C)(C)C)c(=P(c2ccccc2)(c2ccccc2)c2ccccc2)c1=O [compound 15, 2,3-Bis(trimethylsilyl)-4-(triphenylphosphoranylidene)cyclobut-2-enone]",IC50,[1],113 nM
